# Test results taken from paper PMC8119466, “A screen of FDA-approved drugs identifies inhibitors of protein tyrosine phosphatase 4A3 (PTP4A3 or PRL-3)” (Scientific Reports, 2021).
# Counter-ions that a name gives are not always drawn. Like-named read-outs stand apart in the source and are kept apart here.
# Tests used:
# Assay type in all cases: biochemical
# recombinant PRL-2 = target: T1, recombinant PRL-2 (Homo sapiens, UniProt Q12974); assay: In vitro phosphatase assay (DiFMUP hydrolysis), PRL-2;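 further: PRL-2 activity read as DiFMUP hydrolysis after 20 min at room temperature with drug, enzyme first pre-reduced at 4 °C for 20 min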
# T1 construct: 6xHis (N, cleaved yes); made in house; host or cells: E. coli One Shot BL21 Star
# T1 sequence (Q12974 1-167): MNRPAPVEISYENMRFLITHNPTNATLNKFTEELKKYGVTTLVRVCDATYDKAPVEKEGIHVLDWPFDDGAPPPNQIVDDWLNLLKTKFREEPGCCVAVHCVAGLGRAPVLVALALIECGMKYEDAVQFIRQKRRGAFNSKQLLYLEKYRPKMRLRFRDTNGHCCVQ
# recombinant PRL-3 = target: T2, recombinant PRL-3 (Homo sapiens, UniProt O75365); assay: In vitro phosphatase assay (DiFMUP hydrolysis), PRL-3; further: test concentration or dose not given here
# T2 construct: 6xHis (N, cleaved yes); made in house; host or cells: E. coli One Shot BL21 Star
# recombinant PRL-1 = target: T3, recombinant PRL-1 (Homo sapiens, UniProt Q93096); assay: In vitro phosphatase assay (DiFMUP hydrolysis), PRL-1; further: test concentration or dose not given here
# T3 construct: 6xHis (N, cleaved yes); made in house; host or cells: E. coli One Shot BL21 Star
# T3 sequence (Q93096 1-173): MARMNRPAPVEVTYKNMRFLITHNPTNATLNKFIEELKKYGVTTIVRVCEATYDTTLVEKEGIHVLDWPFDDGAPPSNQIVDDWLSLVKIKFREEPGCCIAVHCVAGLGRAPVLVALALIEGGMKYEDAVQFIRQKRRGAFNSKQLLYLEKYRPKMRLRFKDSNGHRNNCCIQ
# [1] = FDA-approved drug screen, compared to DMSO
# [2] = FDA-approved drug screen, activity compared to DMSO
# T2 sequence (O75365 whole entry): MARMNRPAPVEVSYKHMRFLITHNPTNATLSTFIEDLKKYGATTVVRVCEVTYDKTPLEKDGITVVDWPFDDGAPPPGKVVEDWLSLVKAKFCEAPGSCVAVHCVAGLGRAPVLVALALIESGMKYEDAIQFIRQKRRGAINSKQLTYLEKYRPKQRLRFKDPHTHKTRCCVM
compound,measurement,setting,value
CCN(CC)CC(=O)Nc1c(C)cccc1C [Lidocaine hydrochloride],% Phosphatase Activity (compared to DMSO) PRL-2,recombinant PRL-2; [1],88%
same,% Phosphatase Activity (compared to DMSO) PRL-3,recombinant PRL-3; [1],84%
same,% Phosphatase Activity (compared to DMSO) PRL-1,recombinant PRL-1; [1],97%
C=C1[C@H](CO)[C@@H](O)C[C@@H]1n1cnc2c(=O)[nH]c(N)nc21 [Entecavir Hydrate],% Phosphatase Activity (compared to DMSO) PRL-2,recombinant PRL-2; [1],92%
same,% Phosphatase Activity (compared to DMSO) PRL-3,recombinant PRL-3; [1],71%
same,% Phosphatase Activity (compared to DMSO) PRL-1,recombinant PRL-1; [1],102%
CCCCCCCC(=O)N[C@H](CN1CCCC1)[C@H](O)c1ccc2c(c1)OCCO2.O=C(O)C(O)C(O)C(=O)O [Eliglustat Tartrate],% Phosphatase Activity (compared to DMSO) PRL-2,recombinant PRL-2; [1],91%
same,% Phosphatase Activity (compared to DMSO) PRL-3,recombinant PRL-3; [1],96%
same,% Phosphatase Activity (compared to DMSO) PRL-1,recombinant PRL-1; [1],96%
NC(=O)CC[C@H](N)C(=O)O [L-Glutamine],% Phosphatase Activity (compared to DMSO) PRL-2,recombinant PRL-2; [1],77%
same,% Phosphatase Activity (compared to DMSO) PRL-3,recombinant PRL-3; [1],87%
same,% Phosphatase Activity (compared to DMSO) PRL-1,recombinant PRL-1; [1],94%
CC(C)Oc1ccc(-c2nc(-c3cccc4c3CC[C@@H]4NCCO)no2)cc1C#N [Ozanimod (RPC1063)],% Phosphatase Activity (compared to DMSO) PRL-2,recombinant PRL-2; [1],101%
same,% Phosphatase Activity (compared to DMSO) PRL-3,recombinant PRL-3; [1],88%
same,% Phosphatase Activity (compared to DMSO) PRL-1,recombinant PRL-1; [1],95%
CNS(=O)(=O)Cc1ccc2[nH]cc(CCN(C)C)c2c1 [Sumatriptan Succinate],% Phosphatase Activity (compared to DMSO) PRL-2,recombinant PRL-2; [2],84%
same,% Phosphatase Activity (compared to DMSO) PRL-3,recombinant PRL-3; [2],80%
same,% Phosphatase Activity (compared to DMSO) PRL-1,recombinant PRL-1; [2],99%
Clc1ccc2nsnc2c1NC1=NCCN1 [Tizanidine HCl],% Phosphatase Activity (compared to DMSO) PRL-2,recombinant PRL-2,92%
same,% Phosphatase Activity (compared to DMSO) PRL-3,recombinant PRL-3,76%
same,% Phosphatase Activity (compared to DMSO) PRL-1,recombinant PRL-1,93%
NC[C@H]1CC[C@H](C(=O)O)CC1 [Tranexamic Acid],% Phosphatase Activity (compared to DMSO) PRL-2,recombinant PRL-2; [2],89%
same,% Phosphatase Activity (compared to DMSO) PRL-3,recombinant PRL-3; [2],96%
same,% Phosphatase Activity (compared to DMSO) PRL-1,recombinant PRL-1; [2],92%
C[C@H]1O[C@@H](n2cc(F)c(=O)[nH]c2=O)[C@H](O)[C@@H]1O [Doxifluridine],% Phosphatase Activity (compared to DMSO) PRL-2,recombinant PRL-2; [1],103%
same,% Phosphatase Activity (compared to DMSO) PRL-3,recombinant PRL-3; [1],98%
same,% Phosphatase Activity (compared to DMSO) PRL-1,recombinant PRL-1; [1],91%
CC(C)(O/N=C(\C(=O)N[C@@H]1C(=O)N2C(C(=O)[O-])=C(C[n+]3ccccc3)CS[C@H]12)c1csc(N)n1)C(=O)O [Ceftazidime Pentahydrate],% Phosphatase Activity (compared to DMSO) PRL-2,recombinant PRL-2; [1],106%
same,% Phosphatase Activity (compared to DMSO) PRL-3,recombinant PRL-3; [1],103%
same,% Phosphatase Activity (compared to DMSO) PRL-1,recombinant PRL-1; [1],100%
CCC1(c2cccc(O)c2)CCCCN(C)C1 (stereo not drawn) [Meptazinol HCl],% Phosphatase Activity (compared to DMSO) PRL-2,recombinant PRL-2; [1],124%
same,% Phosphatase Activity (compared to DMSO) PRL-3,recombinant PRL-3; [1],84%
same,% Phosphatase Activity (compared to DMSO) PRL-1,recombinant PRL-1; [1],106%
CC(COc1ccccc1)N(CCCl)Cc1ccccc1 (stereo not drawn) [Phenoxybenzamine HCl],% Phosphatase Activity (compared to DMSO) PRL-2,recombinant PRL-2; [1],112%
same,% Phosphatase Activity (compared to DMSO) PRL-3,recombinant PRL-3; [1],81%
same,% Phosphatase Activity (compared to DMSO) PRL-1,recombinant PRL-1; [1],106%
CCCOc1ccc(C(=O)OCCN(CC)CC)cc1N [Proparacaine HCl],% Phosphatase Activity (compared to DMSO) PRL-2,recombinant PRL-2; [1],108%
same,% Phosphatase Activity (compared to DMSO) PRL-3,recombinant PRL-3; [1],96%
same,% Phosphatase Activity (compared to DMSO) PRL-1,recombinant PRL-1; [1],78%
O=P1(N(CCCl)CCCl)NCCCO1 (stereo not drawn) [Cyclophosphamide Monohydrate],% Phosphatase Activity (compared to DMSO) PRL-2,recombinant PRL-2,105%
same,% Phosphatase Activity (compared to DMSO) PRL-3,recombinant PRL-3,94%
same,% Phosphatase Activity (compared to DMSO) PRL-1,recombinant PRL-1,90%
CN1CCN2c3ccccc3Cc3ccccc3C2C1 (stereo not drawn) [Mianserin HCl],% Phosphatase Activity (compared to DMSO) PRL-2,recombinant PRL-2; [1],99%
same,% Phosphatase Activity (compared to DMSO) PRL-3,recombinant PRL-3; [1],59%
same,% Phosphatase Activity (compared to DMSO) PRL-1,recombinant PRL-1; [1],95%
N=C(N)c1ccc(OCCCCCOc2ccc(C(=N)N)cc2)cc1 [Pentamidine],% Phosphatase Activity (compared to DMSO) PRL-2,recombinant PRL-2; [1],116%
same,% Phosphatase Activity (compared to DMSO) PRL-3,recombinant PRL-3; [1],95%
same,% Phosphatase Activity (compared to DMSO) PRL-1,recombinant PRL-1; [1],113%
NCC[C@H](O)C(=O)N[C@@H]1C[C@H](N)[C@@H](O[C@H]2O[C@H](CN)[C@@H](O)[C@H](O)[C@H]2O)[C@H](O)[C@H]1O[C@H]1O[C@H](CO)[C@@H](O)[C@H](N)[C@H]1O [Amikacin disulfate],% Phosphatase Activity (compared to DMSO) PRL-2,recombinant PRL-2; [1],152%
same,% Phosphatase Activity (compared to DMSO) PRL-3,recombinant PRL-3; [1],110%
same,% Phosphatase Activity (compared to DMSO) PRL-1,recombinant PRL-1; [1],96%
CCc1ccc(CCOc2ccc(CC3SC(=O)NC3=O)cc2)nc1 (stereo not drawn) [Pioglitazone],% Phosphatase Activity (compared to DMSO) PRL-2,recombinant PRL-2; [1],105%
same,% Phosphatase Activity (compared to DMSO) PRL-3,recombinant PRL-3; [1],80%
same,% Phosphatase Activity (compared to DMSO) PRL-1,recombinant PRL-1; [1],103%
C#Cc1cccc(Nc2ncnc3cc(OCCOC)c(OCCOC)cc23)c1.Cl [Erlotinib HCl (OSI-744)],% Phosphatase Activity (compared to DMSO) PRL-2,recombinant PRL-2; [1],128%
same,% Phosphatase Activity (compared to DMSO) PRL-3,recombinant PRL-3; [1],87%
same,% Phosphatase Activity (compared to DMSO) PRL-1,recombinant PRL-1; [1],110%
